Molecules are shown by their SMILES.

The target of one assay is RIPK1 (Homo sapiens (Human), UniProt Q13546). The assay is described as follows: ADP-Glo kinase assay (RIPK1 activity, conversion of ATP to ADP). It counts as biochemical. Conditions: 5 nM RIPK1, 50 μM ATP, 6 h reaction; read-out: RIPK1 Enzyme Avg IC50. In short, it runs like this: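 ADP-Glo luminescence of ATP-to-ADP conversion by 5 nM RIPK1 with 50 μM ATP (final), 6 h reaction after 10 min compound preincubation at rt. Buffer was 50 mM HEPES pH 7.5, 30 mM MgCl2, 0.05% BSA, 0.02% CHAPS. IC50 from four-parameter logistic fit.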
For orientation: In ADP-Glo the light output rises with the ADP produced.

In assay [1] the test system is human monocytic cell line U937. The assay is described as follows: Human U937 cellular necroptosis assay (TNFalpha + z-VAD-FMK, Cell Titer-Glo viability). It counts as cell-based. To be noted: Homo sapiens, U-937, 22 h, U937 cells, 25 ng/mL human TNFalpha + 25 μM z-VAD-FMK, read-out: hU937 Avg IC50. The gist of the method: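 Cells resuspended in phenol red-free RPMI with 10% FBS, stimulated with 25 ng/mL human TNFalpha plus 25 μM z-VAD-FMK, then given serially diluted compound for 22 h at 37° C, 5% CO2. Viability by Cell Titer-Glo 2.0 luminescence; IC50 from four-parameter logistic fit, averaged across runs.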
On the technique in general: ATP-based viability assays read luminescence as a measure of living cells.

Chain of RIPK1 (Q13546 1-327): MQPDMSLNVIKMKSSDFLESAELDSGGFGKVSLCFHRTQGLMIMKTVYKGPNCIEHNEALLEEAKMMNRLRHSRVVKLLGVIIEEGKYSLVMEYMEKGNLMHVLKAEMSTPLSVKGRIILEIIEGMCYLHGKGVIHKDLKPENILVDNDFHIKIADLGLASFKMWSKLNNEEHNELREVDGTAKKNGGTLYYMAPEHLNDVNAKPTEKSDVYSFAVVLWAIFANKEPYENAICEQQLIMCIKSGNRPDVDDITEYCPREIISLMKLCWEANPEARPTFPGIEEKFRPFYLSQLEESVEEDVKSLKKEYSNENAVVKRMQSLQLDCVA

As to `N#Cc1ccc(OCC23CC(C(=O)N4N=CCC4c4cc(F)cc(F)c4)(C2)C3)c(Cl)c1` (stereo not shown) [Example 202, 3-Chloro-4-((3-(5-(3,5-difluorophenyl)-4,5-dihydro-1H-pyrazole-1-carbonyl)bicyclo[1.1.1]pentan-1-yl)methoxy)benzonitrile], the results for the IC50 (on RIPK1; in assay [1]) were 0.032 µM and 0.018 µM, respectively.
For `O=C(N1N=CCC1c1cc(F)cc(F)c1)C12CC(CO)(C1)C2` (stereo not shown) [Example 208, (5-(3,5-Difluorophenyl)-4,5-dihydro-1H-pyrazol-1-yl)(3-(hydroxymethyl)bicyclo[1.1.1]pentan-1-yl)methanone], the IC50 at RIPK1 is 2.27 µM; in assay [1] it was 4.3 µM.
For `N#Cc1ccc2c(ccn2CC23CC(C(=O)N4N=CCC4c4cc(F)cc(F)c4)(C2)C3)n1` (stereo not shown) [Example 210, 1-((3-(5-(3,5-difluorophenyl)-4,5-dihydro-1H-pyrazole-1-carbonyl)bicyclo[1.1.1]pentan-1-yl)methyl)-1H-pyrrolo[3,2-b]pyridine-5-carbonitrile] the same measures were 0.0094 µM and 0.01 µM.
Regarding `N#Cc1cnc2c(ccn2CC23CC(C(=O)N4N=CCC4c4cc(F)cc(F)c4)(C2)C3)c1` (stereo not shown) [Example 212, 1-((3-(5-(3,5-difluorophenyl)-4,5-dihydro-1H-pyrazole-1-carbonyl)bicyclo[1.1.1]pentan-1-yl)methyl)-1H-pyrrolo[2,3-b]pyridine-5-carbonitrile], the values for the IC50 (at RIPK1; in assay [1]) were 0.011 µM and 0.019 µM, respectively.
For `N#Cc1cc2cnn(CC34CC(C(=O)N5N=CCC5c5cc(F)cc(F)c5)(C3)C4)c2cn1` (stereo not shown) [Example 213, 1-((3-(5-(3,5-difluorophenyl)-4,5-dihydro-1H-pyrazole-1-carbonyl)bicyclo[1.1.1]pentan-1-yl)methyl)-1H-pyrazolo[3,4-c]pyridine-5-carbonitrile] the same measures were 0.033 µM and 0.063 µM.
`N#Cc1cnc2cnn(CC34CC(C(=O)N5N=CCC5c5cc(F)cc(F)c5)(C3)C4)c2c1` (stereo not shown) [Example 218, 1-((3-(5-(3,5-difluorophenyl)-4,5-dihydro-1H-pyrazole-1-carbonyl)bicyclo[1.1.1]pentan-1-yl)methyl)-1H-pyrazolo[4,3-b]pyridine-6-carbonitrile]: the IC50 on RIPK1 amounted to 0.025 µM; in assay [1], 0.113 µM.
For `N#Cc1cc2cn(CC34CC(C(=O)N5N=CCC5c5cc(F)cc(F)c5)(C3)C4)nc2cn1` (stereo not shown) [Example 219, 2-((3-(5-(3,5-difluorophenyl)-4,5-dihydro-1H-pyrazole-1-carbonyl)bicyclo[1.1.1]pentan-1-yl)methyl)-2H-pyrazolo[3,4-c]pyridine-5-carbonitrile] the same measures were 0.047 µM and 0.292 µM.
`N#Cc1cnc2cn(CC34CC(C(=O)N5N=CCC5c5cc(F)cc(F)c5)(C3)C4)nc2c1` (stereo not shown) [Example 222, 2-((3-(5-(3,5-difluorophenyl)-4,5-dihydro-1H-pyrazole-1-carbonyl)bicyclo[1.1.1]pentan-1-yl)methyl)-2H-pyrazolo[4,3-b]pyridine-6-carbonitrile]: the half-inhibitory concentration (IC50) was determined as 0.22 µM on RIPK1 and 1.1 µM in assay [1].
For `COc1cccc(C(F)C23CC(C(=O)N4N=CCC4c4cc(F)cc(F)c4)(C2)C3)c1` (stereo not shown) [Example 226, (5-(3,5-difluorophenyl)-4,5-dihydro-1H-pyrazol-1-yl)(3-(fluoro(3-methoxyphenyl)-methyl)bicyclo[1.1.1]pentan-1-yl)methanone] the same measures were 0.035 µM and 0.051 µM.
Regarding `COc1ccc(C(F)C23CC(C(=O)N4N=CCC4c4cc(F)cc(F)c4)(C2)C3)cc1` (stereo not shown) [Example 228, (5-(3,5-difluorophenyl)-4,5-dihydro-1H-pyrazol-1-yl)(3-(fluoro(4-methoxyphenyl)-methyl)bicyclo[1.1.1]pentan-1-yl)methanone], the IC50 at RIPK1 was 0.433 µM; in assay [1] it was 2.41 µM.
Consider `O=C(N1N=CCC1c1cc(F)cc(F)c1)C12CC(C(O)c3cccc(Cl)c3)(C1)C2` (stereo not shown) [Example 230, (3((3-chlorophenyl)-(hydroxy)methyl)bicyclo-[1.1.1]pentan-1-yl)(5-(3,5-difluorophenyl)-4,5-dihydro-1H-pyrazol-1-yl)methanone], for which the IC50 on RIPK1 came to 0.093 µM; in assay [1] it was 0.407 µM.
Consider `N#Cc1ccc2c(cnn2CC23CC(C(=O)N4CCC4c4ccc(Cl)cc4)(C2)C3)c1` (stereo not shown) [Example 233, 1-((3-(2-(4-chlorophenyl)-azetidine-1-carbonyl)bicyclo-[1.1.1]pentan-1-yl)methyl)-1H-indazole-5-carbonitrile], for which the IC50 on RIPK1 turned out to be 0.223 µM; in assay [1], 1.19 µM.
With `N#Cc1ccc2c(cnn2CC23CC(C(=O)N4CCC4c4ccc(F)cc4)(C2)C3)c1` (stereo not shown) [Example 234, 1-((3-(2-(4-fluorophenyl)-azetidine-1-carbonyl)bicyclo-[1.1.1]pentan-1-yl)methyl)-1H-indazole-5-carbonitrile], the IC50 at RIPK1 came out at 0.211 µM; in assay [1], 1.97 µM.
On to `N#Cc1ccc2c(cnn2CC23CC(C(=O)N4CCC4c4ccccc4F)(C2)C3)c1` (stereo not shown) [Example 248, 1-((3-(2-(2-fluorophenyl)-azetidine-1-carbonyl)bicyclo-[1.1.1]pentan-1-yl)methyl)-1H-indazole-5-carbonitrile], for which the IC50 on RIPK1 was found to be 0.023 µM; in assay [1], 0.186 µM.
For `N#Cc1ccc2c(cnn2CC23CC(C(=O)N4CCC4c4cccc(F)c4)(C2)C3)c1` (stereo not shown) [Example 252, 1-((3-(2-(3-fluorophenyl)-azetidine-1-carbonyl)bicyclo-[1.1.1]pentan-1-yl)methyl)-1H-indazole-5-carbonitrile] the same measures were 0.043 µM and 0.436 µM.
Turning to `N#Cc1ccc2c(cnn2CC23CC(C(=O)N4N=CC[C@H]4c4cc(F)cc(F)c4)(C2)C3)c1` [Example 253, (S)-1-((3-(5-(3,5-difluoro-phenyl)-4,5-dihydro-1H-pyrazole-1-carbonyl)bicyclo-[1.1.1]pentan-1-yl)methyl)-1H-indazole-5-carbonitrile], the results for the IC50 (at RIPK1; in assay [1]) were 0.051 µM and 0.479 µM, respectively.
In the case of `N#Cc1ccc2c(cnn2CC23CC(C(=O)N4CCC4c4cccs4)(C2)C3)c1` (stereo not shown) [Example 255, 1-((3-(2-(thiophen-2-yl)-azetidine-1-carbonyl)bicyclo-[1.1.1]pentan-1-yl)methyl)-1H-indazole-5-carbonitrile], the IC50 at RIPK1 came to 0.049 µM; in assay [1] it was 0.55 µM.
Consider `N#Cc1ccc2c(cnn2CC23CC(C(=O)N4N=CCC4c4ccc5nccn5c4)(C2)C3)c1` (stereo not shown) [Example 258, 1-((3-(5-(imidazo[1,2-a]-pyridin-6-yl)-4,5-dihydro-1H-pyrazole-1-carbonyl)bicyclo-[1.1.1]pentan-1-yl)methyl)-1H-indazole-5-carbonitrile], for which the IC50 at RIPK1 worked out at 1.01 µM; in assay [1], 3.83 µM.
Turning to `N#Cc1ccc2c(cnn2CC23CC(C(=O)N4CCC4c4cccc(Cl)c4Cl)(C2)C3)c1` (stereo not shown) [Example 260, 1-((3-(2-(2,3-dichlorophenyl)-azetidine-1-carbonyl)bicyclo-[1.1.1]pentan-1-yl)methyl)-1H-indazole-5-carbonitrile], the 50% inhibitory concentration (IC50) worked out at 0.528 µM at RIPK1 and 5.61 µM in assay [1].
`N#Cc1ccc2c(cnn2CC23CC(C(=O)NCc4cc(F)cc(F)c4)(C2)C3)c1` [Example 261, 3-((5-cyano-1H-indazol-1-yl)methyl)-N-(3,5-difluoro-benzyl)bicyclo[1.1.1]pentane-1-carboxamide]: the figures for the IC50 (on RIPK1; in assay [1]) were 4.52 µM and 9.47 µM, respectively.
As for `N#Cc1ccc(OCC23CC(C(=O)N4N=CCC4c4cc(F)cc(F)c4)(C2)C3)nc1` (stereo not shown) [Example 320, 6-((3-(5-(3,5-difluorophenyl)-4,5-dihydro-1H-pyrazole-1-carbonyl)bicyclo[1.1.1]pentan-1-yl)methoxy)nicotinonitrile], the IC50 at RIPK1 stood at 0.019 µM; in assay [1], 0.03 µM.
`O=C(N1N=CCC1c1cc(F)cc(F)c1)C12CC(COc3ncc(F)cc3F)(C1)C2` (stereo not shown) [Example 321, (5-(3,5-difluorophenyl)-4,5-dihydro-1H-pyrazol-1-yl)(3-(((3,5-difluoropyridin-2-yl)-oxy)methyl)bicyclo[1.1.1]-pentan-1-yl)methanone]: the IC50 was found to be 0.018 µM at RIPK1 and 0.045 µM in assay [1].
On to `O=C(N1N=CCC1c1cc(F)cc(F)c1)C12CC(COc3ncc(F)cn3)(C1)C2` (stereo not shown) [Example 325, (5-(3,5-difluorophenyl)-4,5-dihydro-1H-pyrazol-1-yl)(3-(((5-fluoropyrimidin-2-yl)-oxy)methyl)bicyclo[1.1.1]-pentan-1-yl)methanone], for which the IC50 at RIPK1 worked out at 0.021 µM; in assay [1] it was 0.193 µM.
Regarding `COc1ccnc(OCC23CC(C(=O)N4N=CCC4c4cc(F)cc(F)c4)(C2)C3)n1` (stereo not shown) [Example 327, (5-(3,5-difluorophenyl)-4,5-dihydro-1H-pyrazol-1-yl)(3-(((4-methoxypyrimidin-2-yl)oxy)methyl)bicyclo[1.1.1]-pentan-1-yl)methanone], the IC50 at RIPK1 is 0.075 µM; in assay [1], 0.381 µM.
Consider `O=C(N1N=CCC1c1cc(F)cc(F)c1)C12CC(COc3cc(F)cnc3F)(C1)C2` (stereo not shown) [Example 328, (5-(3,5-difluorophenyl)-4,5-dihydro-1H-pyrazol-1-yl)(3-(((2,5-difluoropyridin-3-yl)-oxy)methyl)bicyclo[1.1.1]-pentan-1-yl)methanone], for which the results for the IC50 (at RIPK1; in assay [1]) were 0.116 µM and 0.409 µM, respectively.
For `O=C(N1N=CCC1c1cc(F)cc(F)c1)C12CC(COc3ccc(Br)cc3Cl)(C1)C2` (stereo not shown) [Example 330, (3-((4-bromo-2-chloro-phenoxy)methyl)bicyclo-[1.1.1]pentan-1-yl)(5-(3,5-difluorophenyl)-4,5-dihydro-1H-pyrazol-1-yl)methanone] the same measures were 0.011 µM and 0.021 µM.

A word on the IC50: it is the midpoint of a concentration-inhibition curve.

These data come from patent publication US20250214942A1, “INHIBITORS OF RECEPTOR INTERACTING PROTEIN KINASE I FOR THE TREATMENT OF DISEASE” (Board of Regents, The University of Texas System, priority 2019, published 2025).
